Reference: patent publication US20170050966A1, “INHIBITING THE TRANSIENT RECEPTOR POTENTIAL A1 ION CHANNEL” (HYDRA BIOSCIENCES, INC., priority 2014, published 2017)
Converted amounts (≈) assume the structure as drawn. Read-outs that look alike come from different tables or passages of the source.

What was measured:
[1] = test system: allergic sheep challenged with Ascaris suum; test: Sheep model of allergic bronchoconstriction and airway hyperresponsiveness; format: in vivo
Protocol: Compound 2 was also tested in the sheep model of allergic bronchoconstriction and airway hyperresponsiveness according to the methods disclosed in Abraham, W. M Palm Pharmacol Ther (2008) 21:743-754. Allergic sheep challenged with Ascaris suum show a substantial, biphasic increase in pulmonary resistance (RL). The first four hours are considered the early asthmatic response (EAR); the next four hours (hours 4-8) are considered to be the late asthmatic response (LAR). To assess airway responsiveness (AHR), the cumulative carbachol dose in breath units that increased pulmonary resistance 400% over the post-buffer value (PC 400) was calculated from the dose response curve. One breath unit was defined as one breath of a 1% w/v carbachol solution. A pre-challenge PC 400 was obtained 1-3 days before the start of dosing.
Compound 2 was formulated as a micronized powder suspended in 0.5% methylcellulose at a concentration of 6 mg/ml and administered orally at a dose of 30 mg/kg once a day for 4 days, at the same approximate time each day. Sheep were given 30 mg/kg Compound 2 orally daily four days. Two hours after the final dose of Compound 2, the sheep were subjected to an allergen (Ascaris) challenge. Each sheep was restrained in a prone position and its head was immobilized prior to topical anesthesia of the nasal passages. A balloon catheter was advanced through one nostril into the lower esophagus. Each sheep was intubated with a cuffed endotracheal tube through the other nostril. Tracheal and pleural pressures were determined using the endotracheal tube and balloon catheter, respectively. The trans-pulmonary pressure, i.e., the difference between the tracheal and pleural pressures, was measured using a differential pressure transducer catheter system. RL was determined by connecting the distal end of the endotracheal tube to a pneumotachograph. Data were collected from five to ten breaths to a computer and used to calculate RL. Data from the same sheep challenged with Ascaris prior to the initiation of Compound 2 treatment were used to establish baseline values. Monitoring conditions for the control and drug trials were identical.
On the day of challenge and two hours after the final dose of Compound 2, an aerosol of Ascaris suum (82,000 protein nitrogen units/mL) was generated using a nebulizer and delivered to the sheep using a Harvard respirator. RL was determined one hour prior to challenge, immediately following Ascaris challenge, and hourly thereafter for eight hours. Challenge to 4 hours is considered the EAR while 4 to 8 hours is considered the LAR.
Sheep were also challenged with aerosolized carbachol, a cholinergic agonist that has a negative impact on AHR. […]

human TRPA1 (hTRPA1) = target: T1, human TRPA1 (hTRPA1) (Homo sapiens, UniProt O75762); test: hTRPA1 IC50 in presence of albumin and plasma, whole-cell patch clamp; format: cell-based; conditions: for IC50: 20 μM AITC
T1 construct: expressed in transfected cells
T1 sequence (O75762 whole entry): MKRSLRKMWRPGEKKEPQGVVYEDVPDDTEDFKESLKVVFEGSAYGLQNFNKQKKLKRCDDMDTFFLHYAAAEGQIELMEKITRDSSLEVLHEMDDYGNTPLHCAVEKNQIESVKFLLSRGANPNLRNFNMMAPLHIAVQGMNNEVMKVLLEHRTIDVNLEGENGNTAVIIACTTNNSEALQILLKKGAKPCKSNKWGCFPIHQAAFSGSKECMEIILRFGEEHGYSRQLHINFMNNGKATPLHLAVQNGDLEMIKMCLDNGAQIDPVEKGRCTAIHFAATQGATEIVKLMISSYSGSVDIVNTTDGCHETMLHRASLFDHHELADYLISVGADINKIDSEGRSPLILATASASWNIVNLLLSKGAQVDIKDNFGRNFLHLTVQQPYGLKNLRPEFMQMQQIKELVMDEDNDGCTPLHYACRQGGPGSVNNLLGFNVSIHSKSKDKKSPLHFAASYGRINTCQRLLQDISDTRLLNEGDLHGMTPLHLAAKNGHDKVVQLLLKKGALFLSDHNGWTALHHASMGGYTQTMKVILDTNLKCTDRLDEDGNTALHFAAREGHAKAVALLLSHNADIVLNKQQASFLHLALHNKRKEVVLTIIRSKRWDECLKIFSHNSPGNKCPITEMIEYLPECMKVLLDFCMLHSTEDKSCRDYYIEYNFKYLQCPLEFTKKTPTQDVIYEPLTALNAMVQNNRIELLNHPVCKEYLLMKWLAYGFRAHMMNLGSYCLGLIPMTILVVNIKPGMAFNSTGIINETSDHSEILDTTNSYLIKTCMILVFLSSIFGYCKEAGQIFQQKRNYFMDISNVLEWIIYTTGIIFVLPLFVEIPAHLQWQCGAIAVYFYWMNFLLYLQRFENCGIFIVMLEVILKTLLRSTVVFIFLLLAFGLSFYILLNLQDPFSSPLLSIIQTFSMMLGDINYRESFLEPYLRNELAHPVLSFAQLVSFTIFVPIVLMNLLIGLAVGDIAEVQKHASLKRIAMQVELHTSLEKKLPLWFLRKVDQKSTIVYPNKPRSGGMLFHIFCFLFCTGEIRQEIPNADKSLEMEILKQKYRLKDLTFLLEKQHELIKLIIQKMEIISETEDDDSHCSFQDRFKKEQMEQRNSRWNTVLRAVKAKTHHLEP
From the text: The change in IC50 block in the presence of albumin and plasma was also studied. It is assumed that the pharmacological effect of a drug correlates to unbound plasma levels, which is known as the “free drug hypothesis”. The aim of this study was to estimate the change in IC50 for block of human TRPA1 (hTRPA1) by Compound 2 in the presence of physiologically relevant concentrations of albumin and plasma (see Table 7). The human form of TRPA1 was used to assess protein binding in all species due to technical issues. The whole-cell patch clamp technique as described in del Camino, D. et al. J Neurosci 74 (2010) 30:15165 was employed to measure current through hTRPA1 upon activation by allyl isothiocyanate (AITC), the active ingredient in mustard oil, in the presence of 1% (w/v) serum albumin or 25% (v/v) plasma from various species including human plasma (hPlasma), human serum albumin (HSA), rat plasma (rPlasma), rat serum albumin (RSA), dog plasma, and sheep serum albumin (sheepSA). Compound 2 was sub-diluted from a 10 mM stock in DMSO to 10 and 100 μM in DMSO, then diluted into Ringer solution at the concentrations referenced in Table 7 and Table 8.

[2] = Oral PK and bioavailability of micronized Compound 2 suspension; format: in vivo; conditions: fasted cynomolgus monkeys
Protocol: Additional studies were conducted with micronized Compound 2 in rat, dogs (beagles), and cynomolgus monkeys. Animals received a 10 mg/kg dose oral dose of compound formulated as a suspension in 0.5% methyl cellulose in water for injection at a target concentration of 1 mg/mL, and administered a dose volume of 10 mL/kg by oral gavage in rats or fasted dogs and via oral delivery in fasted cynomolgus monkeys. The % F for the rats in these studies was 85%, 36% for the dogs, and 19% for the monkeys. FIG. 11 depicts the pharmacokinetic profile for these species.
Three studies were conducted in fasted cynomolgus monkeys to determine the PK profile and bioavailability of a suspension formulation of Compound 2. Three monkeys were administered a suspension containing 10 mg/kg micronized Compound 2 by oral gavage. Monkeys were bled before dosing and at 0.25, 0.50, 1, 2, 4, 6, 12, and 24 hours post-dosing. Compound 2 plasma levels were determined by LC/MS/MS. Additional studies were conducted to evaluate the PK profile at higher dose levels of Compound 2 administered to fasted monkeys as an oral suspension. Blood samples were collected prior to dosing and up to 24 hours post-dosing. An additional 48 hour blood sample was collected from monkeys dosed with 300 mg/kg Compound 2. Plasma levels of Compound 2 were determined by LC/MS/MS.

human CYP450 enzymes = test: CYP450 inhibition, seven isozymes overall; format: biochemical; conditions: 10 μM, seven isozymes tested
[3] = test system: T2, human CYP450 enzymes (seven isozymes tested); test: CYP450 inhibition, seven isozymes overall; format: biochemical; conditions: human, read-out: calculated IC50 values
T2 construct: other: seven isozymes tested

[4] = Solubility in simulated gastrointestinal fluid (SGF); format: physicochemical; conditions: simulated gastric fluid, thermodynamic from solid, HCl 0.1N at 25° C.
Protocol: Solubility was further assessed in simulated gastrointestinal fluid (SGF) (HCl 0.1N at 25° C.). Briefly, compound was agitated for 30 hours and sampled, centrifuged, and analyzed by UPLC.

[5] = 30 mg/kg orally once a day for 4 days

Question: With `C[C@@H](C(=O)Nc1ccnc(-c2cnc(N3CCC[C@H]3C(F)(F)F)nc2)n1)n1cnc2c1c(=O)n(C)c(=O)n2C` [Compound 2, (S)-2-(1,3-dimethyl-2,6-dioxo-2,3-dihydro-1H-purin-7(6H)-yl)-N-(2′-((S)-2-(trifluoromethyl)pyrrolidin-1-yl)-[2,5′-bipyrimidin]-4-yl)propanamide] as the molecule, how does the “peak early airway responses” value [1, 5] read?
Answer: did not affect the peak early airway responses

Question: And the “protection of late airway responses” value [1, 5]?
Answer: 85%

Question: And the “airway hyperresponsiveness (PC400)” value ([1]; 30 mg/kg orally, carbachol challenge 24 hours after final dose)?
Answer: reduced the airway hyperresponsiveness to levels similar to those observed in sheep that were not challenged with Ascaris suum

Question: What about the “average LAR (increase in pulmonary resistance)” value ([1]; treatment trial, 30 mg/kg orally once a day for 4 days) of the same molecule?
Answer: 19±2.3%

Question: What about the IC50 (human TRPA1 (hTRPA1); 1% (w/v) rat serum albumin, read-out: IC50 + RSA) of the same molecule?
Answer: 95 ± 9 nM

Question: What about the IC50 (human TRPA1 (hTRPA1); 1% (w/v) sheep serum albumin, read-out: IC50 + SheepSA) of the same molecule?
Answer: 70 ± 10 nM

Question: And the IC50 (human TRPA1 (hTRPA1); 25% (v/v) dog plasma, read-out: IC50 + dog Plasma)?
Answer: 221 ± 54 nM

Question: What about the IC50 (human TRPA1 (hTRPA1); 25% (v/v) human plasma, read-out: IC50 + hPlasma) of the same molecule?
Answer: 95 ± 2 nM

Question: What about the IC50 (human TRPA1 (hTRPA1); 25% (v/v) rat plasma, read-out: IC50 + rPlasma) of the same molecule?
Answer: 68 ± 8 nM

Question: What about the “Fold Shift” value (human TRPA1 (hTRPA1); IC50 + RSA) of the same molecule?
Answer: 14X

Question: What about the “Fold Shift” value (human TRPA1 (hTRPA1); IC50 + SheepSA) of the same molecule?
Answer: 10X

Question: And the “Fold Shift” value (human TRPA1 (hTRPA1); IC50 + dog Plasma)?
Answer: 32X

Question: What about the “Fold Shift” value (human TRPA1 (hTRPA1); IC50 + hPlasma vs IC50 in absence of serum) of the same molecule?
Answer: 14 X

Question: What about the “Fold Shift” value (human TRPA1 (hTRPA1); IC50 + rPlasma) of the same molecule?
Answer: 10X

Question: What about the “binding to plasma proteins based on the shift in IC50” value (human TRPA1 (hTRPA1); across the four species tested) of the same molecule?
Answer: 90-97%

Question: And the “time to complete block and reversal upon washout” value (human TRPA1 (hTRPA1); hTRPA1 currents)?
Answer: 2 to 3 min

Question: What about the bioavailability ([2]; cynomolgus monkey, plasma, 10 mg/kg oral, micronized suspension) of the same molecule?
Answer: 19%

Question: What about the “Exposures on an AUC and Cmax basis versus dose” value ([2]; oral suspension) of the same molecule?
Answer: increased with doses up to 1000 mg/kg

Question: What about the “maximum block of human CYP450 enzymes” value (human CYP450 enzymes) of the same molecule?
Answer: up to 37%

Question: And the IC50 [3]?
Answer: > 10000 nM

Question: What about the solubility at 30 h [4] of the same molecule?
Answer: 1050 µg/mL (≈ 1930 µM)
